Tests used:
[1] = findings of SCCS; cited from earlier work
[2] = Chemical stability (thermal, alkaline and acidic media); format: physicochemical

| Stability in alkaline media [2] | Thermal stability [2] | Degradation in alkaline conditions ([2]; above pH 10, ambient temperature) | Degradation at elevated temperatures ([2]; above pH 10 or below about pH 4, elevated temperatures, compared with ambient) | Degradation in acidic conditions ([2]; below about pH 4, ambient temperature) | Compound | Allergenicity [1] |
| --- | --- | --- | --- | --- | --- | --- |
|  |  |  |  |  | CC(C)(O)CCCC1=CCC(C=O)CC1 (stereo not drawn) [cyclohexal, 4(4-hydroxy-4-methylpentyl) 3-cyclohexene carboxaldehyde] | allergenic concerns |
| unstable in alkaline media | thermally unstable | rapidly degraded | degradation proceeds even more rapidly | rapidly degraded | CC(=CCCC=O)CCCC(C)(C)O [(I), 5,9-dimethyl-9-hydroxy-decen-4-al] |  |
